Data as given in patent US8211849B2, “Stable antimicrobial compositions including spore, bacteria, fungi and/or enzyme” (priority 2005, dated 2012).
Read-outs that look alike come from different tables or passages of the source.

Columns and labels:
[1] = system: bacteria; test: Non-food contact sanitizing test, summary (organism not named); type: cell-based; conditions: Table 13; composition including the named antimicrobial agent
Procedure: The composition produced greater than 3 log10 reduction of bacteria within a 5 minute contact time.
A summary of sanitizing efficacy in a non-food contact sanitizing test is shown below in Table 11 below. All testing was performed in 500 ppm synthetic hard water with a five minute exposure time. Microbiological testing was performed according to known methods, certain of which included EPA efficacy data requirements from DIS/TSS-10.
(§1) A summary of stability and sanitizing efficacy for these compositions including an amine antimicrobial agent is shown below in Table 13. This table also includes, for comparison, results for compositions including other types of antimicrobial agents.

[2] = Physical stability of compositions; type: physicochemical
Text: as §1

[3] = system: lipase; test: Enzyme stability testing (Lipolase activity); type: biochemical; conditions: Table 13; composition including the named antimicrobial agent
Procedure: The pH of Formula 3 was lowered to 7. Formulas 4 and 5 maintained enzyme stability at 40 C for at least 30 days. Formula 3 maintained enzyme stability at 40 C for 30 days, but dropped thereafter. Enzyme stability testing was performed according to the manufacturers specifications (e.g., Novozymes LUNA #2000-10340-01 “Manual Procedure for Determination of Lipolase Activity in Enzyme Preparations and Detergents”. )

[4] = Table 13, composition including the named antimicrobial agent

Compound	Antimicrobial Activity [1]	Physical Stability [2, 4]	Enzyme Stability [3]	Physical Stability [2]
CCCCCCCCCC[N+](C)(C)CCCCCCCCCC.[Cl-] [Bardac 2250, didecyl dimethyl ammonium chloride]	3 log reduction			
O=C([O-])CNCO.[Na+] [Integra 44, Hydroxymethylglycinate]	none	yes		
CCCCCCCCCCCCN(CCCN)CCCN [Lonzabac 12.30, bis (3-aminopropyl)dodecylamine]	4.5 log reduction	yes	yes	
Cc1cc(O)cc(C)c1Cl [PCMX, Chloroxylenol, reference compound]		yes		
Oc1cccc(O)c1 [Resorcinol, 1,3-benzenediol, reference compound]		yes		
Dodecyl/tetradecyloxypropyl-1,3-diaminopropane [DA 1618]	4.8 log reduction	yes	yes	
cocodiaminopropane [Duomeen CD]	2.5 log reduction	yes	yes	
isotridecyloxypropyl-1,3-diaminopropane [DA-17]	4 log reduction		yes	yes
linear alkyloxypropyl amine [PA-19]	4 log reduction	yes	yes	
polyhexymethylene biguanide [Vantocil]		yes		
